Molecular target: Full length human TBK1 (Homo sapiens (Human), UniProt Q9UHD2)
Assay: Inhibition of TBK1 Enzyme (Example A)
Format: biochemical
Settings: -log(IC50), IC50 molar; 3 nM TBK1, 25 μM ATP, 60 min RT
Method: Full length human TBK1 with an N-terminal His-tag was cloned into the pFastBacl vector and was transfected into Sf9 cells. 72 hours later the virus was harvested and amplified through two additional rounds of infections. Then 400 mL of the resulting virus stock was used to infect 10 L of Sf9 cells at a density of 2×10^6 cells/mL. Cell pellets were harvested 48 hours post infection and were lysed by freeze-thaw, homogenization and sonication in binding buffer (25 mM Tris pH7.6, 1 M NaCl, 10 mM imidazole, 0.5 mM TCEP) plus 0.1% Triton X-100 and complete protease inhibitor cocktail. The lysate was spun and the supernatant was purified with a HisTrap FF crude and a Superdex 200 pg column.
TBK1 inhibition is determined using a 384 well plate format in buffer containing 20 mM Hepes, pH 7.4, 10 mM MgCl2, 1 mM EDTA, 0.01% Brij-L23, 1 mM DTT. Each test compound is prepared in DMSO using 2.5-fold serial dilutions for 11 data points, which are added to the buffer so that each dilution contains 1% DMSO. To each well is added 2 μL of 1 μM 5FAM-DRHDSGLDSMKDE-NH2 (in buffer), 2 μL of diluted test compound (1% DMSO in buffer), and 5 μL of 3 nM TBK1 and 25 μM ATP (in buffer). The reaction mixture is incubated at RT for 60 min, and quenched by adding 20 mM Hepes, pH 7.4, 10 mM MgCl2, 1 mM EDTA, 0.01% Brij-L23, 1 mM DTT+25 mM EDTA. To quantify the fluorescent-labeled substrate and product following reaction, the test plate is loaded on a Caliper LC-3000, which measures percent of conversion by microfluidic-based separation. Corresponding IC50 values are calculated by non-linear curve fitting of the compound concentrations and percent of inhibition to the standard IC50 equation and reported as pIC50, i.e., −log(IC50), where IC50 is the molar concentration.

Full length human TBK1, sequence (Q9UHD2 whole entry): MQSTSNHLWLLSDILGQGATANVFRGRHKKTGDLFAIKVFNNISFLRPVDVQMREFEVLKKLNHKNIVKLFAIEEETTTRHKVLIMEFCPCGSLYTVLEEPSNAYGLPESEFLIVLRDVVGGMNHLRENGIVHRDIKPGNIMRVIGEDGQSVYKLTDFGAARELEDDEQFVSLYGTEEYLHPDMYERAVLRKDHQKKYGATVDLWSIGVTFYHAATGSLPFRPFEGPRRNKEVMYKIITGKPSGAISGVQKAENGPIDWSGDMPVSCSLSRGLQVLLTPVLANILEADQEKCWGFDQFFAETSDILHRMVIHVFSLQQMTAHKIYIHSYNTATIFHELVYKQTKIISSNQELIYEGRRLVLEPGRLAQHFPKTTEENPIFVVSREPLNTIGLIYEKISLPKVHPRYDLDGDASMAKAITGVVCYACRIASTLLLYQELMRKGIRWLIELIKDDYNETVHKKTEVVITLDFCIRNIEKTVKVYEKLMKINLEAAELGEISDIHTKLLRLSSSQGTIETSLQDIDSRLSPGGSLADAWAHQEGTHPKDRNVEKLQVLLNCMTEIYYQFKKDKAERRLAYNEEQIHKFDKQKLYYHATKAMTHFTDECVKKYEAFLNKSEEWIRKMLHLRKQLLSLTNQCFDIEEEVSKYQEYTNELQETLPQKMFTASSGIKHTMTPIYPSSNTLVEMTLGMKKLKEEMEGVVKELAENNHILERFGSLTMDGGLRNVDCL

| SMILES | TBK1 Inhibition (pIC50) |
| --- | --- |
| C[C@@H](Nc1cc(-c2cnc(NC(=O)C3CC3)cn2)cnc1C#N)C(=O)N(C)C [Example 30, (R)-N-(5-(6-cyano-5-((1-(dimethylamino)-1-oxopropan-2-yl)amino)pyridin-3-yl)pyrazin-2-yl)cyclopropanecarboxamide] | 5.8 |
| C[C@H](Nc1cc(-c2cnc(NC(=O)C3CC3)cn2)ccc1C#N)C(=O)N1CC(O)C1 [Example 11, (S)-N-(5-(4-cyano-3-((1-(3-hydroxyazetidin-1-yl)-1-oxopropan-2-yl)amino)phenyl)pyrazin-2-yl)cyclopropanecarboxamide] | 6.7 |
| N#Cc1ccc(-c2cnc(NC(=O)C3CC3)cn2)cc1NCC(=O)N1CCC1 [Example 21, N-(5-(3-((2-(azetidin-1-yl)-2-oxoethyl)amino)-4-cyanophenyl)pyrazin-2-yl)cyclopropanecarboxamide] | 6.6 |
| CN(C)C(=O)[C@@H](CC(F)F)Nc1cc(-c2cnc(NC(=O)C3CC3)cn2)cnc1C#N [Example 78, (R)-N-(5-(6-cyano-5-((1-(dimethylamino)-4,4-difluoro-1-oxobutan-2-yl)amino)pyridin-3-yl)pyrazin-2-yl)cyclopropanecarboxamide] | 6.6 |
| CN(CCF)C(=O)C(CC(F)F)Nc1cc(-c2cnc(NC(=O)C3CC3)cn2)cnc1C#N (stereo not shown) [Example 85, N-(5-(6-cyano-5-((4,4-difluoro-1-((2-fluoroethyl)(methyl)amino)-1-oxobutan-2-yl)amino)pyridin-3-yl)pyrazin-2-yl)cyclopropanecarboxamide] | 7.1 |
| COC1CN(C(=O)CNc2cc(-c3cnc(NC(=O)C4CC4)cn3)ccc2C#N)C1 [Example 22, N-(5-(4-cyano-3-((2-(3-methoxyazetidin-1-yl)-2-oxoethyl)amino)phenyl)pyrazin-2-yl)cyclopropanecarboxamide] | 6.0 |
| CCC(Nc1cc(-c2cnc(NC(=O)C3CC3)cn2)ccc1C#N)C(=O)N(C)CCO (stereo not shown) [Example 29, N-(5-(4-cyano-3-((1-((2-hydroxyethyl)(methyl)amino)-1-oxobutan-2-yl)amino)phenyl)pyrazin-2-yl)cyclopropanecarboxamide] | 7.8 |
| N#Cc1ncc(-c2cnc(NC(=O)C3CC3)cn2)cc1NCC(=O)N(CCO)CC(F)F [Example 72, N-(5-(6-cyano-5-((2-((2,2-difluoroethyl)(2-hydroxyethyl)amino)-2-oxoethyl)amino)pyridin-3-yl)pyrazin-2-yl)cyclopropanecarboxamide] | 7.8 |
| CC(C#N)N(C)C(=O)[C@H](C)Nc1cc(-c2cnc(NC(=O)C3CC3)cn2)cnc1C#N (stereo partly drawn) [Example 69, N-(5-(6-cyano-5-(((2S)-1-((1-cyanoethyl)(methyl)amino)-1-oxopropan-2-yl)amino)pyridin-3-yl)pyrazin-2-yl)cyclopropanecarboxamide] | 7.7 |
| C[C@H](Nc1cc(-c2cnc(NC(=O)[C@H]3C[C@@H]3C)cn2)cnc1C#N)C(=O)N(C)C [Example 106, (1S,2S)-N-(5-(6-cyano-5-(((S)-1-(dimethylamino)-1-oxopropan-2-yl)amino)pyridin-3-yl)pyrazin-2-yl)-2-methylcyclopropanecarboxamide] | 7.4 |
| COCCNC(=O)[C@H](C)Nc1cc(-c2cnc(NC(=O)C3CC3)cn2)ccc1C#N [Example 15, (S)-N-(5-(4-cyano-3-((1-((2-methoxyethyl)amino)-1-oxopropan-2-yl)amino)phenyl)pyrazin-2-yl)cyclopropanecarboxamide] | 5.8 |
| CN(CCS(C)(=O)=O)C(=O)CNc1cc(-c2cnc(NC(=O)C3CC3)cn2)cnc1C#N [Example 66, N-(5-(6-cyano-5-((2-(methyl(2-(methylsulfonyl)ethyl)amino)-2-oxoethyl)amino)pyridin-3-yl)pyrazin-2-yl)cyclopropanecarboxamide] | 6.6 |
| N#Cc1ncc(-c2cnc(NC(=O)C3CC3)cn2)cc1NCC(=O)N1CCOC1C(F)(F)F (stereo not shown) [Example 64, N-(5-(6-cyano-5-((2-oxo-2-(2-(trifluoromethyl)oxazolidin-3-yl)ethyl)amino)pyridin-3-yl)pyrazin-2-yl)cyclopropanecarboxamide] | 7.5 |
| CCC(Nc1cc(-c2cnc(NC(=O)C3CC3)cn2)ccc1C#N)C(=O)N(C)C (stereo not shown) [Example 6, N-(5-(4-cyano-3-((1-(dimethylamino)-1-oxobutan-2-yl)amino)phenyl)pyrazin-2-yl)cyclopropanecarboxamide] | 8.1 |
| CC[C@@H](Nc1cc(-c2cnc(NC(=O)C3CC3)cn2)cnc1C#N)C(=O)N(C)C [Example 31, (R)-N-(5-(6-cyano-5-((1-(dimethylamino)-1-oxobutan-2-yl)amino)pyridin-3-yl)pyrazin-2-yl)cyclopropanecarboxamide] | 6.3 |
| CC(C#N)NC(=O)CNc1cc(-c2cnc(NC(=O)C3CC3)cn2)cnc1C#N (stereo not shown) [Example 59, N-(5-(6-cyano-5-((2-((1-cyanoethyl)amino)-2-oxoethyl)amino)pyridin-3-yl)pyrazin-2-yl)cyclopropanecarboxamide] | 6.7 |
| C[C@H](Nc1cc(-c2cnc(NC(=O)C3CC3)cn2)ccc1C#N)C(=O)N1CCCC1 [Example 10, (S)-N-(5-(4-cyano-3-((1-oxo-1-(pyrrolidin-1-yl)propan-2-yl)amino)phenyl)pyrazin-2-yl)cyclopropanecarboxamide] | 7.3 |

Further lines, results first:

| TBK1 Inhibition (pIC50) | SMILES |
| --- | --- |
| 7.6 | CN(CC(F)(F)F)C(=O)CNc1cc(-c2cnc(NC(=O)C3CC3)cn2)ccc1C#N [Example 126, N-(5-(4-cyano-3-((2-(methyl(2,2,2-trifluoroethyl)amino)-2-oxoethyl)amino)phenyl)pyrazin-2-yl)cyclopropanecarboxamide] |
| 6.9 | CN(C)C(=O)C(CCO)Nc1cc(-c2cnc(NC(=O)C3CC3)cn2)cnc1C#N (stereo not shown) [Example 115, N-(5-(6-cyano-5-((1-(dimethylamino)-4-hydroxy-1-oxobutan-2-yl)amino)pyridin-3-yl)pyrazin-2-yl)cyclopropanecarboxamide] |
| 7.2 | CN(C)C(=O)CNc1cc(-c2cnc(NC(=O)C3CC3)cn2)ccc1C#N [Example 123, N-(5-(4-cyano-3-((2-(dimethylamino)-2-oxoethyl)amino)phenyl)pyrazin-2-yl)cyclopropanecarboxamide] |
| 7.3 | CC(CO)N(C)C(=O)CNc1cc(-c2cnc(NC(=O)C3CC3)cn2)ccc1C#N (stereo not shown) [Example 133, N-(5-(4-cyano-3-((2-((1-hydroxypropan-2-yl)(methyl)amino)-2-oxoethyl)amino)phenyl)pyrazin-2-yl)cyclopropanecarboxamide] |
| 6.2 | CC1(O)CCN(C(=O)CNc2cc(-c3cnc(NC(=O)C4CC4)cn3)ccc2C#N)C1 (stereo not shown) [Example 132, N-(5-(4-cyano-3-((2-(3-hydroxy-3-methylpyrrolidin-1-yl)-2-oxoethyl)amino)phenyl)pyrazin-2-yl)cyclopropanecarboxamide] |
| 8.3 | N#Cc1ncc(-c2cnc(NC(=O)C3CC3)cn2)cc1NCC(=O)N1CCC[C@@H]1C(F)F [Example 141, (R)-N-(5-(6-cyano-5-((2-(2-(difluoromethyl)pyrrolidin-1-yl)-2-oxoethyl)amino)pyridin-3-yl)pyrazin-2-yl)cyclopropanecarboxamide] |
| 7.1 | CN(C)C(=O)C(CO)Nc1cc(-c2cnc(NC(=O)C3CC3)cn2)cnc1C#N [Example 128, (S)-N-(5-(6-cyano-5-((1-(dimethylamino)-3-hydroxy-1-oxopropan-2-yl)amino)pyridin-3-yl)pyrazin-2-yl)cyclopropanecarboxamide] |
| 7.2 | CC[C@H](Nc1cc(-c2cnc(NC(=O)C3CC3)cn2)cnc1C#N)C(=O)NCC(F)F [Example 120, (S)-N-(5-(6-cyano-5-((1-((2,2-difluoroethyl)amino)-1-oxobutan-2-yl)amino)pyridin-3-yl)pyrazin-2-yl)cyclopropanecarboxamide] |
| 7.0 | CC[C@H](Nc1cc(-c2cnc(NC(=O)C3CC3)cn2)ncc1C#N)C(=O)N(C)C [Example 127, (S)-N-(5-(5-cyano-4-((1-(dimethylamino)-1-oxobutan-2-yl)amino)pyridin-2-yl)pyrazin-2-yl)cyclopropanecarboxamide] |
| 7.2 | C[C@H](Nc1cc(-c2cnc(NC(=O)[C@H]3C[C@H]3C)cn2)cnc1C#N)C(=O)N(C)C [Example 109, (1S,2R)-N-(5-(6-cyano-5-(((S)-1-(dimethylamino)-1-oxopropan-2-yl)amino)pyridin-3-yl)pyrazin-2-yl)-2-methylcyclopropanecarboxamide] |
| 6.8 | C[C@H](Nc1cc(-c2cnc(NC(=O)C3CC3)cn2)cnc1C#N)C(=O)NC1CC1(F)F (stereo partly drawn) [Example 118, N-(5-(6-cyano-5-(((2S)-1-((2,2-difluorocyclopropyl)amino)-1-oxopropan-2-yl)amino)pyridin-3-yl)pyrazin-2-yl)cyclopropanecarboxamide] |

From patent US9994547B2, “Heteroarylamide inhibitors of TBK1” (Takeda Pharmaceutical Company Limited, priority 2014, dated 2018)
